Data from the supplement of paper PMC10307832.

Assays:
Assay in all cases: relative viability (nuclei count vs DMSO), 5 days (fraction); higher = more cells survive
[1] = compound: CCCS(=O)(=O)Nc1ccc(F)c(C(=O)c2c[nH]c3ncc(-c4ccc(Cl)cc4)cc23)c1F [Vemurafenib] + CC(=O)Nc1cccc(-n2c(=O)n(C3CC3)c(=O)c3c(Nc4ccc(I)cc4F)n(C)c(=O)c(C)c32)c1 [Trametinib] (partner 0.02 µM)
How it was run: (§1)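 For relative viability, nuclei counts in treated wells were divided by those in vehicle wells. Lung cancer cell lines had been pin-tool dosed in 1536-well plates the day after seeding and cultured for 5 days, then fixed and stained in one step (final 0.05% Triton X-100, 1% formaldehyde, 1 ug/ml Hoechst) and imaged at 4×. Doses were one drug alone or a fixed anchor-drug dose plus five library-drug doses (not always all listed) in √10 steps, and values are duplicate-plate medians.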

[2] = compound: Cc1nc(NC(=O)N2CCC[C@H]2C(N)=O)sc1-c1ccnc(C(C)(C)C(F)(F)F)c1 [Alpelisib] + NC(=O)Nc1cc(-c2cccc(F)c2)sc1C(=O)N[C@H]1CCCNC1 [AZD7762] (partner 0.2 µM)
How it was run: as §1

[3] = compound: Cc1nc(NC(=O)N2CCC[C@H]2C(N)=O)sc1-c1ccnc(C(C)(C)C(F)(F)F)c1 [Alpelisib] + Nc1ncn([C@H]2C[C@H](O)[C@@H](CO)O2)c(=O)n1 [Decitabine] (partner 2 µM)
How it was run: as §1

[4] = compound: Cc1nc(NC(=O)N2CCC[C@H]2C(N)=O)sc1-c1ccnc(C(C)(C)C(F)(F)F)c1 [Alpelisib] + CC(=O)c1c(C)c2cnc(Nc3ccc(N4CCNCC4)cn3)nc2n(C2CCCC2)c1=O [Palbociclib] (partner 0.5 µM)
How it was run: as §1

Cell Line	relative viability ([1]; first compound 0.03162 µM)	relative viability ([1]; first compound 0.1 µM)	relative viability ([1]; first compound 0.3162 µM)	relative viability ([1]; first compound 1 µM)	relative viability ([2]; first compound 0.04 µM)	relative viability ([2]; first compound 0.1265 µM)	relative viability ([2]; first compound 0.4 µM)	relative viability ([2]; first compound 1.265 µM)	relative viability ([2]; first compound 4 µM)	relative viability ([3]; first compound 0.04 µM)	relative viability ([3]; first compound 0.1265 µM)	relative viability ([3]; first compound 0.4 µM)	relative viability ([3]; first compound 1.265 µM)	relative viability ([3]; first compound 4 µM)	relative viability ([4]; first compound 0.04 µM)	relative viability ([4]; first compound 0.1265 µM)	relative viability ([4]; first compound 0.4 µM)	relative viability ([4]; first compound 1.265 µM)	relative viability ([4]; first compound 4 µM)
NCI-H1666	0.928	0.786	1.04	0.86	0.902	0.762	1.03	0.865	0.711	0.686	0.708	0.781	0.694	0.612	0.681	0.606	0.693	0.571	0.493
LCLC-97TM1		0.184	0.201	0.268	0.165	0.305	0.34	0.289	0.166	0.232	0.222	0.213	0.191	0.177	0.206	0.177	0.183	0.119	0.0948
BEN	0.935	1.01	0.638	0.811	0.67	0.59	0.756	0.825	0.549	0.776	0.679	0.837	0.693	0.749	0.485	0.504	0.516	0.439	0.447
LU99A	0.521	0.563		0.664	0.335	0.361	0.408	0.365	0.398	0.822	0.838	0.899	0.666	0.579	0.374	0.379	0.363	0.259	0.22
RERF-LC-KJ	0.826	0.921	0.872	0.783	0.871	0.99	1.5	0.762	0.724	0.668	0.638	0.706	0.5	0.536	1.1	1.03	1.16	0.759	0.928
SW 900	0.939	0.593	0.778	0.868	0.629		0.545	0.546	0.519	0.425		0.411	0.505	0.379	0.536		0.706	0.483	0.49
NCI-H1944	0.453		0.41	0.423	0.452	0.6	0.605	0.3	0.344	0.429	0.44	0.413	0.37	0.384	0.303	0.302	0.345	0.241	0.221
HARA	0.742	0.325	0.71	0.757	0.364	0.334	0.398	0.249	0.442	0.387	0.556	0.514	0.377	0.432	0.295	0.25	0.257	0.172	0.156
A-427	0.711	0.702		0.763	0.712	0.649	0.72	0.574	0.617	0.518	0.483	0.574	0.461	0.44	0.5	0.507	0.521	0.493	0.437
NCI-H2347	0.266	0.215	0.263	0.251	0.756	0.661	0.815	0.81	0.764	0.641	0.635	0.657	0.539	0.571	0.417	0.45	0.407	0.474	0.423
NCI-H1975	0.328	0.327	0.259	0.281	0.731	0.621	0.731	0.463	0.374	0.39	0.357	0.387	0.366	0.268	0.628	0.552	0.597	0.323	0.319
HCC-15	0.373	0.363	0.43	0.429	1.23	1.35	1.32	1.05	0.908	0.642	0.531	0.622	0.504	0.383	0.749	0.702	0.773	0.617	0.551
NCI-H23	0.295	0.314	0.457	0.366	0.23	0.211	0.396	0.154	0.224	0.322	0.276	0.327	0.28	0.198	0.59	0.434	0.461	0.305	0.313
NCI-H441	0.434	0.431	0.611	0.472	1.28	1.14	1.35	1.22	1.07	0.244	0.215	0.271	0.22	0.224	0.225	0.166	0.182	0.14	0.111
NCI-H1734	0.655	0.641	0.66	0.643	0.604	0.556	0.584	0.397	0.209	0.532	0.478	0.497	0.477	0.255	0.307	0.282	0.373	0.263	0.227
HCC-366	0.346	0.193		0.376	0.317	0.316	0.307	0.183	0.072	0.322	0.318	0.327	0.231	0.194	0.421	0.356	0.36	0.247	0.162
LXF-289	0.656	0.599	0.697	0.733	1.05	1.1	1.21	1.18	1.27	0.373	0.352	0.336	0.377	0.277	0.55	0.562	0.653	0.534	0.604
ChaGo-K-1	0.834	0.875	0.868	0.898	0.865	0.909	0.875	0.791	0.672	0.52	0.529	0.526	0.475	0.446	0.958	0.965	1	0.747	0.584
NCI-H838	0.527	0.528	0.257	0.548	0.916	0.946	1.02	0.775	0.86	0.405	0.422	0.508	0.438	0.359	0.246	0.222	0.24	0.18	0.182
NCI-H1993	0.5		0.555	0.609	0.722	0.656	0.695	0.539	0.472	0.547	0.561	0.592	0.494	0.671	0.549	0.637	0.647	0.501	0.465
NCI-H1437	0.474	0.538	0.626	0.629	1.12	1.18	1.12	1.02	1.06	0.562	0.579	0.609	0.527	0.527	0.327	0.314	0.356	0.264	0.314
NCI-H522	0.695	0.63	0.786	0.783	0.791	0.987	0.729	0.702	0.678	0.707	0.741	0.681	0.591	0.61	0.993	0.752	0.87	0.944	0.657
NCI-H1648		0.326	0.569	0.58	0.581	0.591	0.821	0.62	0.521	0.477	0.508	0.353	0.372	0.253	0.259	0.304	0.241	0.234	0.237
NCI-H647	0.496	0.435	0.37	0.488	0.586	0.322	0.688	0.393	0.325	0.423	0.497	0.537	0.306	0.35	0.322	0.447	0.421	0.289	0.275
HCC-78	0.783	0.609	1.06	0.838	0.726	0.515	0.293	0.362	0.377	0.705	0.67	0.657	0.562	0.533	0.521	0.545	0.479	0.459	0.43
